US4426519A, “7-(2-Amino-4-thiazolyl)-acetamido cephalosporanic acids” (Roussel Uclaf, priority 1979, dated 1984)
Converted amounts (≈) assume the structure as drawn. Structures can show the parent of a compound that is named as a salt. Where two headings read alike, the source gives them in different places.

Key:
Experiment in all cases: MIC, dilution in liquid medium
Assay type in all cases: cell-based
[1] = tested on: Streptococcus pyogenes A 561
Procedure: (§1) The method used was a dilution of a liquid medium where a series of tubes received the same quantity of a sterile nutritive media and increasing doses of the test compounds were placed therein. Then each tube was seeded with a bacterial strain and was incubated for 24 to 48 hours at 37° C. in an oven. The increasing inhibition was determined by transillulumination to determine the minimum inhibiting concentration (MIC in μg/ml) and the results are reported in the following Tables.

[2] = tested on: Escherichia Coli Exp. TO26 B6
Procedure: as §1

[3] = tested on: Pseudomonas 3935 Exp.Sensible Gentamycine
Procedure: as §1

[4] = tested on: Proteus mirabilis (indol-) A 235
Procedure: as §1

[5] = tested on: Escherichia Coli sensitive Tetracycline ATCC 9 637
Procedure: as §1

[6] = tested on: Staphylococcus aureus exp.n°54 146
Procedure: as §1

[7] = tested on: Escherichia Coli Resistant Tetracycline ATCC 11 303
Procedure: as §1

[8] = tested on: Staphylococcus aureus UC 1 128 Pen-resistant
Procedure: as §1

Enterobacter cloacae 681 = tested on: Enterobacter cloacae 681
Procedure: as §1

[9] = tested on: Serratia Resistant Gentamycine 2 532
Procedure: as §1

[10] = tested on: Klebsiella pneumoniae 2 536 Resistant Gentamycine
Procedure: as §1

[11] = tested on: Bacillus subtilis ATCC 6 633
Procedure: as §1

[12] = tested on: Staphylococcus aureus ATCC 6 538 Pen Sensitive
Procedure: as §1

Providencia Du 48 = tested on: Providencia Du 48
Procedure: as §1

[13] = tested on: Salmonella typhimurium 420; conditions: Salmonella enterica
Procedure: as §1

[14] = tested on: Escherichia Coli Resistant Gentamycine, Tobramycine R 55 123 D
Procedure: as §1

[15] = tested on: Klebsiella pneumoniae Exp. 52 145
Procedure: as §1

[16] = tested on: Streptococcus faecalis 5 432; conditions: Enterococcus faecalis, 5432, 24 h
Procedure: as §1

[17] = Enterobacter cloacae, 681, 24 h
[18] = Enterobacter cloacae, 681, 48 h

| SMILES | MIC ([1]; A561, 24 h) [µg/mL] | MIC ([1]; A561, 48 h) [µg/mL] | MIC ([2]; 24 h) [µg/mL] | MIC ([2]; 48 h) [µg/mL] | MIC ([4]; 24 h) [µg/mL] | MIC ([4]; 48 h) [µg/mL] | MIC ([5]; ATCC9, 48 h) [µg/mL] | MIC ([6]; 24 h) [µg/mL] | MIC ([6]; 48 h) [µg/mL] | MIC ([7]; ATCC11, 24 h) [µg/mL] | MIC ([7]; ATCC11, 48 h) [µg/mL] | MIC ([8]; UC1, 24 h) [µg/mL] | MIC ([8]; UC1, 48 h) [µg/mL] | MIC ([10]; 48 h) [µg/mL] | MIC ([11]; ATCC6, 24 h, read-out: MIC) [µg/mL] | MIC ([11]; ATCC6, 48 h) [µg/mL] | MIC ([12]; ATCC6, 48 h) [µg/mL] | MIC ([5]; ATCC9, 24 h, read-out: MIC) [µg/mL] | MIC ([9]; 48 h, read-out: MIC) [µg/mL] | MIC ([10]; 24 h, read-out: MIC) [µg/mL] | further results |
| --- | --- | --- | --- | --- | --- | --- | --- | --- | --- | --- | --- | --- | --- | --- | --- | --- | --- | --- | --- | --- | --- |
| Cn1nnnc1SCC1=C(C(=O)O)N2C(=O)C(NC(=O)/C(=N\OCCSC(=N)N)c3csc(N)n3)C2SC1 (stereo not drawn) [Example 4, Internal salt of the syn isomer of 3-[(1-methyl-1H-tetrazol-5-yl)-thiomethyl]-7-[2-(2-amino-4-thiazolyl)-2-(2-aminoiminomethylthioethoxyimino)-acetamido]-ceph-3-eme-4-carboxylic acid] | 0.05 | 0.05 | 1 | 1 | 0.2 | 0.5 | 2 | 2 | 2 | 0.2 | 0.2 | 2 | 2 | 5 | 0.5 | 2 | 2 |  |  |  | MIC ([3]; 24 h): 10 µg/mL; MIC ([3]; 48 h): 20 µg/mL; MIC ([5]; ATCC9, 24 h): 2 µg/mL; MIC (Enterobacter cloacae 681; [17]): 3 µg/mL; MIC (Enterobacter cloacae 681; [18]): 3 µg/mL; MIC ([9]; 24 h): 1 µg/mL; MIC ([9]; 48 h): 1 µg/mL; MIC ([10]; 24 h): 5 µg/mL; MIC ([12]; ATCC6, 24 h): 1 µg/mL; MIC (Providencia Du 48; DU48, 24 h): 5 µg/mL; MIC (Providencia Du 48; DU48, 48 h, read-out: MIC): 10 µg/mL; MIC ([13]; 24 h): 2 µg/mL; MIC ([13]; 48 h): 2 µg/mL; MIC ([14]; 24 h): 1 µg/mL; MIC ([14]; 48 h): 1 µg/mL; MIC ([15]; EXP.52145, 24 h): 1 µg/mL; MIC ([15]; EXP.52145, 48 h): 1 µg/mL |
| [N-]=[N+]=NCC1=C(C(=O)O)N2C(=O)C(NC(=O)/C(=N\OCCSC(=N)N)c3csc(N)n3)C2SC1 (stereo not drawn) [Example 5, Internal salt of syn isomer of 3-azidomethyl-7-[2-(2-amino-4-thiazolyl)-2-(2-aminoiminomethylthioethoxyimino)-acetamido]-ceph-3-eme-4-carboxylic acid] | < 0.02 | 0.05 | 0.5 | 0.5 | 0.2 | 0.2 |  |  |  | 0.2 | 0.2 |  |  | 3 | 2 | 3 |  | 2 | 1 | 2 | MIC ([5]; ATCC9, 48 h, read-out: MIC): 2 µg/mL; MIC ([6]; 24 h, read-out: MIC): 1 µg/mL; MIC ([6]; 48 h, read-out: MIC): 2 µg/mL; MIC ([8]; UC1, 24 h, read-out: MIC): 1 µg/mL; MIC ([8]; UC1, 48 h, read-out: MIC): 2 µg/mL; MIC (Enterobacter cloacae 681; [17]): 3 µg/mL; MIC (Enterobacter cloacae 681; [18]): 3 µg/mL; MIC ([9]; 24 h, read-out: MIC): 1 µg/mL; MIC ([12]; ATCC6, 24 h, read-out: MIC): 1 µg/mL; MIC ([12]; ATCC6, 48 h, read-out: MIC): 1 µg/mL; MIC (Providencia Du 48; DU48, 24 h, read-out: MIC): 10 µg/mL; MIC (Providencia Du 48; DU48, 48 h, read-out: MIC): 10 µg/mL; MIC ([13]; 24 h, read-out: MIC): 1 µg/mL; MIC ([13]; 48 h, read-out: MIC): 1 µg/mL; MIC ([14]; 24 h, read-out: MIC): 1 µg/mL; MIC ([14]; 48 h, read-out: MIC): 1 µg/mL; MIC ([15]; EXP.52145, 24 h, read-out: MIC): 1 µg/mL; MIC ([15]; EXP.52145, 48 h, read-out: MIC): 1 µg/mL |
| Cc1nnc(SCC2=C(C(=O)O)N3C(=O)C(NC(=O)/C(=N\OCCSC(=N)N)c4csc(N)n4)C3SC2)s1 (stereo not drawn) [Example 6, Internal salt of syn isomer of 3-[(2-methyl-1,3,4-thiadiazol-5-yl)-thiomethyl]-7-[2-(2-amino-4-thiazolyl)-2-(2-aminoiminomethylthioethoxyimino)-acetamido]-ceph-3-eme-4-carboxylic acid] | 0.05 | 0.05 | 2 | 2 | 1 | 1 | 5 | 2 | 2 | 0.1 | 0.1 | 2 | 2 | 5 | 1 | 2 | 2 | 5 | 3 | 5 | MIC (Enterobacter cloacae 681; Enterobacter cloacae, 681, 24 h, read-out: MIC): 10 µg/mL; MIC (Enterobacter cloacae 681; Enterobacter cloacae, 681, 48 h, read-out: MIC): 10 µg/mL; MIC ([9]; 24 h): 2 µg/mL; MIC ([12]; ATCC6, 24 h, read-out: MIC): 1 µg/mL; MIC ([13]; 24 h): 2 µg/mL; MIC ([13]; 48 h, read-out: MIC): 3 µg/mL; MIC ([14]; 24 h, read-out: MIC): 1 µg/mL; MIC ([14]; 48 h, read-out: MIC): 1 µg/mL; MIC ([15]; EXP.52145, 24 h, read-out: MIC): 1 µg/mL; MIC ([15]; EXP.52145, 48 h, read-out: MIC): 1 µg/mL |
| CC(=O)OCC1=C(C(=O)O)N2C(=O)C(NC(=O)/C(=N\OC(F)F)c3csc(N)n3)C2SC1 (stereo not drawn) [Example 9, Syn isomer of 3-acetoxymethyl-7-[2-(2-amino-4-thiazolyl)-2-difluoromethoxyimino-acetamido]-ceph-3-eme-4-carboxylic acid] | 0.05 (≈ 0.102 µM) | 0.05 (≈ 0.102 µM) |  |  | 0.05 (≈ 0.102 µM) | 0.05 (≈ 0.102 µM) | 1 (≈ 2.03 µM) | 1 (≈ 2.03 µM) | 2 (≈ 4.07 µM) | 0.05 (≈ 0.102 µM) | 0.1 (≈ 0.203 µM) | 1 (≈ 2.03 µM) | 2 (≈ 4.07 µM) |  |  | 5 (≈ 10.2 µM) | 1 (≈ 2.03 µM) | 0.5 (≈ 1.02 µM) | 0.5 (≈ 1.02 µM) | 0.5 (≈ 1.02 µM) | MIC [16]: 5 µg/mL (≈ 10.2 µM); MIC ([9]; 24 h, read-out: MIC): 0.5 µg/mL (≈ 1.02 µM); MIC ([10]; 48 h, read-out: MIC): 0.5 µg/mL (≈ 1.02 µM); MIC ([11]; ATCC6, 24 h): 1 µg/mL (≈ 2.03 µM); MIC ([12]; ATCC6, 24 h): 1 µg/mL (≈ 2.03 µM); MIC (Providencia Du 48; DU48, 24 h): 2 µg/mL (≈ 4.07 µM); MIC (Providencia Du 48; DU48, 48 h): 2 µg/mL (≈ 4.07 µM); MIC ([13]; 24 h, read-out: MIC): 0.5 µg/mL (≈ 1.02 µM); MIC ([13]; 48 h, read-out: MIC): 0.5 µg/mL (≈ 1.02 µM); MIC ([14]; 24 h, read-out: MIC): 0.2 µg/mL (≈ 0.407 µM); MIC ([14]; 48 h, read-out: MIC): 0.2 µg/mL (≈ 0.407 µM); MIC ([15]; EXP.52145, 24 h, read-out: MIC): 0.05 µg/mL (≈ 0.102 µM); MIC ([15]; EXP.52145, 48 h, read-out: MIC): 0.05 µg/mL (≈ 0.102 µM) |
